Results on 3 compounds are retold here after patent US8642801B2 (BHI Limited Partnership, priority 2003, dated 2014).

The assay concerns the target T1, Aβ40 and Aβ42 peptides in plasma and brain of TgCRND8 mice (Homo sapiens, UniProt P05067).
T1 construct: ELISA using Human Aβ40 and Aβ42 Fluorometric ELISA kits from Biosource; from tissue; host or cells: plasma and brain homogenate of TgCRND8 transgenic mice (hAPP transgene)
The assay is described as follows: Short term treatment in adult transgenic CRND8 mice overexpressing βAPP: Aβ levels in plasma and brain by ELISA. The assay is classed as in vivo, Mouse. The following applies: TgCRND8 mice. The text has this:
Transgenic mice, […]8, expressing the human amyloid precursor protein (hAPP) develop a pathology resembling Alzheimer's disease. In particular, high levels of Aβ40 and Aβ 42 have been documented in the plasma and the brain of these animals at 8-9 weeks of age, followed by early accumulation of amyloid plaques similar to the senile plaques observed in AD patients. These animals also display progressive cognitive deficits that parallel the appearance of degenerative changes. See, […], et al., J. Biol. Chem. 276, 21562-70 (2001). The short term therapeutic effect of 19 compounds of the invention was studied. […] The following abbreviations are used to designate these animals from the 3rd and 4th generation backcross in the present protocol: TgCRND8-2.B6C3F1(N3); TgCRND8-2.B6C3F1(N4). Baseline animals (Group 1) consisted of naive TgCRND8-2. B6C3F1(N3) at 11±1 weeks of age. These mice were used to determine the Aβ levels in the plasma and brain of naive transgenic animals at the initiation of treatment. […] At the end of the treatment periods, plasma and perfused brains were collected for quantification of Aβ levels. […] Plasma samples were immediately frozen and stored at -80° C. pending analysis. The brains were removed, frozen, and stored at -80° C. awaiting analysis. […] Samples were spun at 15000 g for 20 minutes and the supernatants were transferred to fresh tubes. […] The tubes were vortexed for 30 seconds and frozen at -80° C. […] Samples were thawed at room temperature, sonicated at 80° C. for 15 minutes and frozen again. This cycle was repeated 3 times to ensure homogeneity and samples were returned to -80° C. pending analysis. Aβ levels were evaluated in plasma and brain samples by ELISA using Human Aβ40 and Aβ42 Fluorometric ELISA kits from Biosource (Cat. […] In short, samples were thawed at room temperature, sonicated for 5 minutes at 80° C. (sonication for brain homogenates; no sonication for plasma samples) and kept on ice. Aβ peptides were captured using 100 μl of the diluted samples to the plate and incubated without shaking at 4° C. overnight. The samples were aspirated and the wells were rinsed 4 times with wash buffer obtained from the Biosource ELISA kit. The anti-Aβ40 or anti-Aβ42 rabbit polyclonal antiserum (specific for the Aβ40 or Aβ42 peptide) was added (100 μl) and the plate was incubated at room temperature for 2 hours with shaking. The wells were aspirated and washed 4 times before adding 100 μl of the alkaline phosphatase labeled anti-rabbit antibody and incubating at room temperature for 2 hours with shaking. The plates were then rinsed 5 times and the fluorescent substrate (100 μl) was added to the plate. The plate was incubated for 35 minutes at room temperature and the plate was read using a titer plate reader at an excitation wavelength of 460 nm and emission at 560 nm Compounds were scored based on their ability to modulate levels of Aβ peptides in the plasma and the cerebral soluble/insoluble levels in the brain. Levels of Aβ observed in the plasma and brain of treated animals were normalized using values from vehicle-treated (water) or methylcellulose-treated control groups and ranked according to the strength of the pharmacological effect. Increases in the levels of Aβ peptides are indicated using “+” symbols, while decreases in the levels of Aβ peptides are indicated using “-” symbols. The strongest effects are recorded as “+++” or “- - -” while the weakest are shown as “+” or “-”.
A general note: An ELISA detects its analyte on a solid surface through an enzyme-linked reagent.

Setting [1] is: Brain Homogenate Methylcellulose Group, Day 14, 250 mg/kg daily oral.
[2] abbreviates: Brain Homogenate Methylcellulose Group, Day 28, 250 mg/kg daily oral.
[3] abbreviates: Plasma Methylcellulose Group, Day 28, 250 mg/kg daily oral in 1% methylcellulose, normalized to methylcellulose control.
The mark [4] stands for this setting: Brain Homogenate Vehicle Group, Day 14, 250 mg/kg daily.
[5] abbreviates: Brain Homogenate Vehicle Group, Day 28, 250 mg/kg daily.
Setting [6] is: Plasma Vehicle Group, Day 14, 250 mg/kg daily subcutaneous, normalized to water vehicle control.

As for `O=S(=O)(O)CCCNC12CC3CC(CC(C3)C1)C2` [BW, 3-(1-adamantyl)amino-1-propanesulfonic acid], under setting [1], the “Brain homogenate Aβ40 Change Insoluble” value is on record as “−−− (decreases of 39% or more are scored as “− − −”)”, the “Brain homogenate Aβ42 Change Insoluble” value is on record as “−−− (decreases of 39% or more are scored as “− − −”)” and the “Brain homogenate Aβ42 Change Soluble” value was “−− (decreases of 20 to 38% are scored as “− −”)”. For the same compound, under setting [2], the “Brain homogenate Aβ40 Change Insoluble” value is reported as “− (Decreases in the levels of Aβ of 5 to 19% are scored as “−”)”, the “Brain homogenate Aβ40 Change Soluble” value is on record as “− (Decreases in the levels of Aβ of 5 to 19% are scored as “−”)”, the “Brain homogenate Aβ42 Change Insoluble” value is listed as “−− (decreases of 20 to 38% are scored as “− −”)” and the “Brain homogenate Aβ42 Change Soluble” value was “− (Decreases in the levels of Aβ of 5 to 19% are scored as “−”)”. Moreover, the “Plasma Aβ42 Change” value under setting [3] is “+ (increases in the levels of Aβ (relative to untreated control) of 20 to 39% are scored as “+”)”.

`O=S(=O)(O)CCCNC1C2CC3CC(C2)CC1C3` (stereo not drawn) [BZ, 3-(2-adamantyl)amino-1-propanesulfonic acid]: under setting [1], the “Brain homogenate Aβ40 Change Insoluble” value is “−−− (decreases of 39% or more are scored as “− − −”)” and the “Brain homogenate Aβ42 Change Insoluble” value is “−− (decreases of 20 to 38% are scored as “− −”)”. For the same compound, under setting [2], the “Brain homogenate Aβ40 Change Insoluble” value is listed as “−− (decreases of 20 to 38% are scored as “− −”)”, the “Brain homogenate Aβ40 Change Soluble” value is given as “−− (decreases of 20 to 38% are scored as “− −”)” and the “Brain homogenate Aβ42 Change Insoluble” value was “−− (decreases of 20 to 38% are scored as “− −”)”. Further, for the setting “Plasma Methylcellulose Group, Day 14, 250 mg/kg daily oral in 1% methylcellulose, normalized to methylcellulose control”, the “Plasma Aβ40 Change” value was “+ (increases in the levels of Aβ (relative to untreated control) of 20 to 39% are scored as “+”)”. Under setting [3], the “Plasma Aβ40 Change” value was “++ (increases of 40 to 69% are scored as “++”)” and the “Plasma Aβ42 Change” value is “++ (increases of 40 to 69% are scored as “++”)”.

As for `CC(C)(C)NCCCS(=O)(=O)O` [BX, 3-(t-butyl)amino-1-propanesulfonic acid], under setting [4], the “Brain homogenate Aβ40 Change Insoluble” value is reported as “−−− (decreases of 39% or more are scored as “− − −”)”, the “Brain homogenate Aβ40 Change Soluble” value is recorded as “− (Decreases in the levels of Aβ of 5 to 19% are scored as “−”)”, the “Brain homogenate Aβ42 Change Insoluble” value is given as “−−− (decreases of 39% or more are scored as “− − −”)” and the “Brain homogenate Aβ42 Change Soluble” value was “−− (decreases of 20 to 38% are scored as “− −”)”. Further, under setting [5], the “Brain homogenate Aβ40 Change Insoluble” value is listed as “−−− (decreases of 39% or more are scored as “− − −”)”, the “Brain homogenate Aβ40 Change Soluble” value is given as “−−− (decreases of 39% or more are scored as “− − −”)”, the “Brain homogenate Aβ42 Change Insoluble” value is “− (Decreases in the levels of Aβ of 5 to 19% are scored as “−”)” and the “Brain homogenate Aβ42 Change Soluble” value is listed as “−− (decreases of 20 to 38% are scored as “− −”)”. Under setting [6], the “Plasma Aβ40 Change” value is “+++ (increases of 70% or higher are scored as “+ + +”)” and the “Plasma Aβ42 Change” value is “++ (increases of 40 to 69% are scored as “++”)”. Further, where the note is “Plasma Vehicle Group, Day 28, 250 mg/kg daily subcutaneous, normalized to water vehicle control”, the “Plasma Aβ40 Change” value is on record as “+++ (increases of 70% or higher are scored as “+ + +”)”.
